Experiment [1] concerns antibodies in serum from dnaX-immunized mice. Type of experiment: binding, mouse.
Experiment [2] in a line: immune sera mixing experiment. The settings on record: 6-week immune sera physically mixed 50:50. Format: in vivo, mouse.

With “dnaX protein: recombinant dnaX protein produced in E. coli”, the “ability to adsorb the signal from immune sera” value in experiment [1] was “Only the dnaX protein could adsorb the signal”. Also, the “dnaX-specific peptides reduced in intensity by adsorption” value in experiment [1] (of the 210 dnaX-specific peptides, beads bearing dnaX protein) came to 35 peptides.

On to “Transferrin: irrelevant human protein used to adsorb the immune sera”, for which the “ability to adsorb the signal from immune sera” value in experiment [1] is listed as “Only the dnaX protein could adsorb the signal”.

With PARYANANGRDLITLGIGSC, in experiment [2], the “distinguishability in 50:50 mixed sera” value is “still distinguishable from the KLH-immunized mice”.

Source of the values: paper PMC3367934 (Molecular & Cellular Proteomics : MCP, 2012).
